According to ChEMBL document CHEMBL3351880, “Unexpected DNA affinity and sequence selectivity through core rigidity in guanidinium-based minor groove binders” (J Med Chem, 2014):
Activity calls are given as the source filed them. The rule behind the calls is not given here.

How the values were obtained:
[1] = Binding affinity to poly(dA.dT)2 oligonucleotide DNA (unknown origin) assessed as change in ICD signals by CD spectroscopy
Salmonidae [2] = assay: Binding affinity to salmon sperm DNA assessed as increase in DNA thermal melting temperature at 15 uM spectrophotometry
Salmonidae [3] = assay: Binding affinity to salmon sperm DNA assessed as change in ICD signals by CD spectroscopy
[4] = Binding affinity to poly(dA).poly(dT) oligonucleotide DNA (unknown origin) assessed as increase in DNA thermal melting temperature at 15 uM spectrophotometry
[5] = Binding affinity to poly(dA.dT)2 oligonucleotide DNA (unknown origin) assessed as increase in DNA thermal melting temperature at 15 uM spectrophotometry
[6] = Binding affinity to AATT DNA hairpin sequence (unknown origin) by SPR assay
[7] = Binding affinity to (CG)4 DNA hairpin sequence (unknown origin) by SPR assay
[8] = Binding affinity to (AT)4 DNA hairpin sequence (unknown origin) by SPR assay
[9] = Selectivity index, ratio of binding affinity to (AT)4 DNA hairpin sequence (unknown origin) to binding affinity to AATT DNA hairpin sequence (unknown origin)
[10] = Binding affinity to poly(dG.dC)2 oligonucleotide DNA (unknown origin) assessed as change in ICD signals by CD spectroscopy
[11] = Binding affinity to poly(dG.dC)2 oligonucleotide DNA (unknown origin) by UV spectroscopy
[12] = Binding affinity to poly(dA.dT)2 oligonucleotide DNA (unknown origin) by UV spectroscopy
Salmonidae [13] = assay: Binding affinity to salmon sperm DNA by UV spectroscopy

Row | Compound | Activity [1] | ΔTm (Salmonidae [2]) | Activity (Salmonidae [3]) | ΔTm [4] | ΔTm [5] | K [6] | K [7] | K [8] | Selectivity Index [9] | Activity [10] | K [11] | K [12] | K (Salmonidae [13])
1 | N=C(N)Nc1ccc2c(c1)Cc1ccc(NC(=N)N)cc1C2 | inactive | 4 °C | inactive | 4 °C | -3 °C | – | – | – | – | – | – | – | –
2 | c1cc(NC2=NCCN2)cc(Sc2ccc(NC3=NCCN3)cc2)c1 | – | – | – | – | – | 1.6 ×10⁵ /M | 2.5 ×10⁵ /M | 3.2 ×10⁵ /M | < 2.4 | – | – | – | –
3 | c1cc(C2CCN(c3ccc(NC4=NCCN4)cc3)CC2)ccc1NC1=NCCN1 | – | – | – | – | – | 1.1 ×10⁵ /M | 1.5 ×10⁵ /M | 1.4 ×10⁵ /M | < 2.4 | – | – | – | –
4 | Nc1ccc2cc3ccc(N)cc3nc2c1 | – | – | – | – | – | 5.7 ×10⁵ /M | 6.5 ×10⁵ /M | 12.2 ×10⁵ /M | < 2.4 | – | – | – | –
5 | N=C(N)Nc1ccc2c(c1)Cc1ccc(NC3=NCCN3)cc1-2 | Active | 4 °C | Active | 20 °C | 22 °C | – | – | – | – | Active | – | – | –
6 | c1cc2c(cc1NC1=NCCN1)Cc1ccc(NC3=NCCN3)cc1-2 | Active | 9 °C | Active | 31 °C | 26 °C | 15 ×10⁵ /M | 6.5 ×10⁵ /M | 36.2 ×10⁵ /M | < 2.4 | – | 9.2 ×10⁵ /M | 14 ×10⁵ /M | 1.9 ×10⁵ /M
7 | c1cc(NC2=NCCN2)ccc1CCc1ccc(NC2=NCCN2)cc1 | – | – | – | – | – | < 1 ×10⁵ /M | < 1 ×10⁵ /M | 1 ×10⁵ /M | < 2.4 | – | – | – | –
8 | c1cc2c(cc1NC1=NCCN1)Cc1ccc(NC3=NCCN3)cc1C2 | inactive | 20 °C | inactive | 12 °C | 1 °C | 2.7 ×10⁵ /M | 5.5 ×10⁵ /M | 5.1 ×10⁵ /M | < 2.4 | – | – | – | –
9 | c1cc(NC2=NCCN2)cc(Oc2ccc(NC3=NCCN3)cc2)c1 | – | – | – | – | – | < 1 ×10⁵ /M | < 1 ×10⁵ /M | 1.5 ×10⁵ /M | < 2.4 | – | – | – | –
